Source: patent publication US20210252175A1, “NOVEL COMPOUNDS FOR DIAGNOSIS” (AC IMMUNE SA, priority 2018, published 2021)
Entries after “also recorded” stand apart in the source; their conditions may differ. Read-outs that look alike come from different tables or passages of the source.

How the values were obtained:
[1] = target: T1, Recombinant human full-length wild-type aSyn fibrils (Homo sapiens, UniProt P37840); experiment: Radio-binding competition assay on recombinant aSyn fibrils; details: for binding to aSyn fibrils in comparison to Examples 70 and 71 of WO2017/153601: comparison of Ki values of Table 9; for Kd: read-out: Kd of the radioligand on aSyn fibrils; for improvement of Ki value on aSyn fibrils compared to compounds 70 and 71 of WO2017/153601: head-to-head within the same measurement
T1 construct: Recombinant human full-length wild-type aSyn bacterially expressed; purchased rPeptide, US
Experimental: Recombinant human full-length wild-type aSyn bacterially expressed was obtained from a commercial provider (rPeptide, US). Protein preparation was transferred into polycarbonate centrifuge tubes (8×51 mm; Beckman 355657) and centrifuged at 100,000 g (38,000 rounds per minute, RPM) in an ultracentrifuge (Beckman, XL100K) for 60 min at 4° C. using the pre-cooled 50.4 Ti rotor (Beckman) to pellet any aggregated material. Supernatant was transferred into a sterile, low retention tube at a final concentration of 5 mg/mL and final volume of 0.5 mL in PBS. The protein was placed in a Thermomixer (Eppendorf) and incubated for 7 days at 37° C. with orbital shaking at 1000 rpm to generate aSyn fibrils.
Material containing aSyn fibrils was transferred into polycarbonate centrifuge tubes (8×51 mm; Beckman 355657) and centrifuged at 100,000 g (38,000 RPM) in an ultracentrifuge (Beckman, XL100K) for 60 min at 4° C. using the pre-cooled 50.4 Ti rotor. The supernatant containing still monomeric aSyn was transferred into new tubes and its concentration was determined. The pellet was resuspended with equal volume of PBS and subjected to further rounds of ultracentrifugation until the concentration obtained for the supernatant was below 0.1 mg/mL. The pellet obtained at the last round of ultracentrifugation containing aSyn fibrils was aliquoted and stored at −80° C. until use. Aggregated aSyn was used at a concentration of 1 μM in radiobinding assays.
Determination of the Binding Affinity (Ki) by Radio-Binding Competition Assay Recombinant aSyn fibrils at concentration of 1 μM were incubated with [^3H] Example 69 disclosed in WO2017/153601, used as aSyn reference binder, at concentrations between 25 nM and 35 nM. The example compounds of this invention were incubated at increasing concentrations in the range 0.4 nM to 2 μM for 120 minutes at 25° C. 90 μL of samples in duplicates were then filtered under vacuum on a GF/C filter plate (PerkinElmer 6005174) to trap the aSyn fibrils with the bound radio-ligand, and washed five times with Tris 50 mM buffer pH 7-5. The GF/C filters were then vacuum-dried, 50 μL scintillation liquid (Ultimate Gold MB, PerkinElmer) was added in each well, and the filters were analyzed on a Microbeta2 device. Non-specific signal was determined with an excess of un-labeled ligand and specific binding was calculated by subtracting the non-specific signal from the total signal. Competition was calculated as percent, where 0% was defined as the specific binding in the presence of vehicle (0.1% DMSO in 50 mM Tris in 0.9% NaCl, 0.1% BSA) and 100% as the values obtained in the presence of excess cold Example 69 disclosed in WO2017/153601. All measurements were performed with at least two technical replicates. The K; values were calculated by nonlinear regression, one site specific binding using Prism V7 (GraphPad). Ki values to recombinant aSyn fibrils were determined in independent experiments and two different batches of aSyn fibrils, derived from the same source but different lots of monomeric aSyn. Results of radio-binding competition assay for the example compounds tested in parallel within the same experiment are shown in Table 9 as measurements A and B. Measurement A was performed on one batch of aSyn fibrils; the Kd for the radioligand [^3H] Example 69 disclosed in WO20171153601 for this batch of aSyn fibrils was 32 nM. Measurement B was performed on second batch of aSyn fibrils, the corresponding Kd for the radioligand [^3H] Example 69 disclosed in WO2017/153601 for the second batch of aSyn fibrils was 60 nM.

[2] = target: T2, Aβ pathological aggregates present in the human AD insoluble fractions (Homo sapiens, UniProt P05067); experiment: Radio-binding competition assay on human AD insoluble fraction; details: for Ki: radioligand [3H] Example 47 of WO2017/153601 at 7 nM
T2 construct: "4.7 g of frontal lobe tissue from post-mortem brain of one Alzheimer's disease (AD) patient"
Experimental: 4.7 g of frontal lobe tissue from post-mortem brain of one Alzheimer's disease (AD) patient were purchased from an external provider (Tissue Solutions Ltd., UK). The patient was a […] and died […]. The brain sample was collected 7.7 hours post-mortem and characterized for Braak disease stage (Braak, H.; Braak, E. Acta Neuropathol., 1991, 82, 239-259) as stage VI. For the preparation of the insoluble fractions, around 3 g of the AD human brain was thawed on ice and homogenized with 8.9 mL of homogenization buffer (0.75 M NaCl, 5 mM EDTA, 50 mM Tris-HCl, pH 7.5) supplemented with protease inhibitors (Complete; Roche 11697498001) in a glass Dounce homogenizer. The homogenization was performed at 4° C. The homogenate was transferred into polycarbonate centrifuge tubes (16×76 mm; Beckman 355603) and centrifuged at 100,000 g (38,000 RPM) in an ultracentrifuge (Beckman, XL100K) for 60 min at 4° C. using the pre-cooled 70.1 rotor (Beckman, 342184). Supernatants were discarded and pellets were re-suspended in 8.9 mL of homogenization buffer supplemented with 1% Triton X-100 (Sigma 93426) and processed with glass Dounce homogenizer at 4° C. The solution was then transferred into polycarbonate centrifuge bottles (16×76 mm; Beckman 355603) and centrifuged at 100,000 g (38,000 RPM) in an ultracentrifuge (Beckman, XL100K) for 60 min at 4° C. using the 70.1 Ti rotor. The process was repeated one more time (supernatants were discarded and pellets were re-suspended in 8.9 mL of homogenization buffer supplemented with 1% Triton X-100 and 1M sucrose processed with glass Dounce homogenizer at 4° C. The solution was then centrifuged at 100,000 g (38,000 RPM) for 60 min at 4° C. using the 70.1 Ti rotor). Supernatant was discarded and pellet was resuspended in 4 mL of PBS to obtain the insoluble fraction. The material was aliquoted and stored at −80° C. until use.
AD insoluble fractions diluted 1/100 were incubated in the presence of [^3H] Example 47 disclosed in WO2017/153601 used as Aβ reference binder, at a concentration of 7 nM and the example compounds of this invention were prepared at increasing concentrations in the range 0.4 nM to 2 μM for 120 minutes at 25° C. 90 μL of samples in duplicates were then filtered under vacuum on a GF/C filter plate (PerkinElmer 6005174) to trap the Aβ aggregates within the AD insoluble fractions with the bound radio-ligand, and washed five times with Tris 50 mM buffer pH 7-5. The GF/C filters were then vacuum-dried, 50 μL scintillation liquid (Ultimate Gold MB, PerkinElmer) was added in each well, and the filters were analyzed on a Microbeta2 device. Non-specific signal was determined with an excess of un-labeled ligand and specific binding was calculated by subtracting the non-specific signal from the total signal. Competition was calculated as percent, where 0% was defined as the specific binding in the presence of vehicle (0.1% DMSO in 50 mM Tris in 0.9% NaCl, 0.1% BSA) and 100% as the values obtained in the presence of excess cold Example 47 disclosed in WO2017/153601. The Ki values were calculated by nonlinear regression, one site specific binding using Prism V7 (GraphPad). Ki values to AD insoluble fraction were determined in independent experiments. Results of radio-binding competition assay on AD insoluble fraction are shown in Table 9 as measurements C and D. The Kd for the radioligand [^3H] Example 47 disclosed in WO2017/153601 on the AD insoluble fraction in measurements C and D was 8 nM.
Example compounds are ranked based on the measured Ki values to Aβ pathological aggregates present in the AD insoluble fractions.

[3] = measurement A, first batch of aSyn fibrils, radioligand [3H] Example 69 of WO2017/153601 (Kd 32 nM), read-out: Ki on aSyn Fibrils, measurement A
[4] = measurement C, read-out: Ki on human AD-Insoluble Fraction, measurement C
[5] = measurement D, read-out: Ki on human AD-Insoluble Fraction, measurement D
[6] = measurement B, second batch of aSyn fibrils, radioligand [3H] Example 69 of WO2017/153601 (Kd 60 nM), read-out: Ki on aSyn Fibrils, measurement B

T2 sequence (P05067 whole entry): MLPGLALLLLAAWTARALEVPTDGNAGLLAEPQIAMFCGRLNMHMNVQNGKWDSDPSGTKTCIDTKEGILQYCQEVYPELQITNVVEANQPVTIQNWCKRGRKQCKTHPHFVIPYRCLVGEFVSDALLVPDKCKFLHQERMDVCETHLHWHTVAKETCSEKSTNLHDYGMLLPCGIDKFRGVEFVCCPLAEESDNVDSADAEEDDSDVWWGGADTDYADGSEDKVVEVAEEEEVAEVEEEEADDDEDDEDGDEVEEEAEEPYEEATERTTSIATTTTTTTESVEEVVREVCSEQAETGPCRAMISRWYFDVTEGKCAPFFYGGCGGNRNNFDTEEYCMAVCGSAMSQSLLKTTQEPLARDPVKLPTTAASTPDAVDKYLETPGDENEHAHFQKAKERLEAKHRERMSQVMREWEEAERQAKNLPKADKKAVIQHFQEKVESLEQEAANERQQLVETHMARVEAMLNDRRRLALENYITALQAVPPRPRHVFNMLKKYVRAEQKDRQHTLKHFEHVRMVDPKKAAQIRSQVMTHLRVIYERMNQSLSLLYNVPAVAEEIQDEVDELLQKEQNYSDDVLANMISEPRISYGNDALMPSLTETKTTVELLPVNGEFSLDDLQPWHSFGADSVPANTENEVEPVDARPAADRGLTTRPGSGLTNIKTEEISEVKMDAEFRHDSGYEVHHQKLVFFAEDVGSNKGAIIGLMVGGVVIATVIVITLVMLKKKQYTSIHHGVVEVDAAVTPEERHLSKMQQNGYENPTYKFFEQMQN

Compound	binding to aSyn fibrils in comparison to Examples 70 and 71 of WO2017/153601 [1]	Ki [1, 3] [µM]	Ki [2, 4] [µM]	Ki [2, 5] [µM]	Ki [1, 6] [µM]	other results
CN1CCN(c2ncc3nc(-c4ccc(N5CCC[C@H](F)C5)nc4)sc3n2)C(=O)C1 [Example 7C]	improved	0.0342	> 0.5	> 0.5		
[3H]C([3H])([3H])Nc1ccc(-c2ccc3cc(-c4cccnc4)sc3n2)cn1 [[^3H] Example 47 of WO2017/153601, reference compound]						Kd ([2]; measurements C and D, read-out: Kd of the radioligand on the AD insoluble fraction): 0.008 µM
CN1CCN(c2cc3sc(-c4ccc(N5CC(F)C5)nc4)nc3cn2)C(=O)C1 [Example 3A]	similar			> 0.5	0.0968	
[3H]C([3H])([3H])N1CCN(c2ccc3nc(-c4ccc(N5CCCC5)nc4)sc3c2)C(=O)C1 [[^3H] Example 69 of WO2017/153601, reference compound]						Kd ([1]; batch of aSyn fibrils of measurement A): 0.032 µM; Kd ([1]; second batch of aSyn fibrils, measurement B): 0.06 µM
CN1CCN(c2cc3sc(-c4cnc(N5CC[C@@H](F)C5)nc4)nc3cn2)C(=O)C1 [Example 3D]	improved	0.0384		> 0.5		
CNc1ncc(-c2nc3cnc(N4CCN(C)CC4=O)cc3s2)cc1F [Example 3B]	improved	0.0278	0.05 to 0.5	0.05 to 0.5		
CN1CCN(c2cc3sc(-c4ccc(N5CC[C@H](F)C5)nc4)nc3cn2)C(=O)C1 [Example 2]		0.0122	> 0.5	> 0.5	0.0319	improvement of Ki value on aSyn fibrils compared to compounds 70 and 71 of WO2017/153601 [1]: improved by at least twofold
CN1CCN(c2ncc3nc(-c4ccc(N5CC[C@H](F)C5)nc4)sc3n2)C(=O)C1 [Example 4]				> 0.5	0.0528	
CN1CCN(c2ncc3nc(-c4ccc(N5CC[C@@H](F)C5)nc4)sc3n2)C(=O)C1 [Example 3]			> 0.5	> 0.5	0.0283	
CN1CCN(c2ccc3nc(-c4ccc(N5CC[C@@H](F)C5)nc4)sc3c2)C(=O)C1 [Example 70 of WO2017/153601, reference compound]		0.039	> 0.5		0.0977	
CN1CCN(c2ccc3nc(-c4ccc(N5CC[C@@H](F)C5)nc4)sc3n2)C(=O)C1 [Example 5]				> 0.5	0.0417	
CN1CCN(c2cc3sc(-c4ccc(N5CC[C@@H](F)C5)nc4)nc3cn2)C(=O)C1 [Example 1]		0.0147	> 0.5		0.0319	improvement of Ki value on aSyn fibrils compared to compounds 70 and 71 of WO2017/153601 [1]: improved by at least twofold
CN1CCN(c2ncc3nc(-c4ccc(N5CCC[C@@H](F)C5)nc4)sc3n2)C(=O)C1 [Example 7B]	improved	0.0313		> 0.5		
CN1CCN(c2cc3sc(-c4cnc(N5CCC5)c(F)c4)nc3cn2)C(=O)C1 [Example 3C]	improved; also recorded: considerably greater affinity	0.0058		> 0.5		
CN1CCN(c2ccc3nc(-c4ccc(N5CC[C@H](F)C5)nc4)sc3c2)C(=O)C1 [Example 71 of WO2017/153601, reference compound]		0.0469	> 0.5		0.0737	
CN1CCN(c2ncc3nc(-c4ccc(N5CC(F)C5)nc4)sc3n2)C(=O)C1 [Example 7A]	similar	0.0553		> 0.5		
CN1CCN(c2ccc3nc(-c4ccc(N5CC[C@H](F)C5)nc4)sc3n2)C(=O)C1 [Example 5]						improvement of Ki value on aSyn fibrils compared to compounds 70 and 71 of WO2017/153601 [1]: improved by at least twofold
CN1CCN(c2ccc3nc(-c4ccc(N5CC[C@@H](F)C5)nc4)sc3n2)C(=O)C1 [Example 4]						improvement of Ki value on aSyn fibrils compared to compounds 70 and 71 of WO2017/153601 [1]: improved by at least twofold
